Like-named read-outs stand apart in the source and are kept apart here.
What was measured:
[1] = biological target: T1, electric eel AChE (EC 3.1.1.7) (Electrophorus electricus, UniProt O42275); test: Spectrophotometric assay for AChE inhibitory activity (modified Ellman's method); type: biochemical; settings: 96-well microplate, 1% DMSO; read-out: AChE inhibitory activity IC50
T1 construct: purchased Sigma-Aldrich, Germany

[2] = biological target: T2, σ receptors labelled by [^3H](+)-pentazocine (σ1) (Cavia porcellus, UniProt Q60492); test: Sigma receptor binding assay, [3H](+)-pentazocine; design: species or system guinea pig
T2 construct: from tissue; host or cells: guinea pig brain membranes
Description: (§1) Filters were washed three times with 5 ml of ice-cold 10 mM Tris-HCI buffer (pH 8). The bound radioactivity was measured by liquid scintillation counting (Beckman Coulter™ LS6500). […] The values are expressed as the mean ± S.E.M of 2 - 4 independent experiments, each performed in duplicate.

k opioid receptors = biological target: T3, k opioid receptors (Cavia porcellus, UniProt P41144); test: Opioid receptor binding assay, [3H]U69,593, guinea pig brain membranes
T3 construct: Membrane fractions were prepared from Sprague-Dawley rat or guinea pig brains; from tissue; host or cells: guinea pig brain (without cerebella) membranes
Description: (§2) Briefly, brains without cerebella were homogenised on ice in 5 volumes of ice-cold 50 mM Tris-HCI buffer (pH 7.4) and diluted in 30 volumes of the same buffer. After centrifugation at 40,000 x g for 20 min at 4°C, the pellets were resuspended in 30 volumes of Tris-HCI buffer and incubated at 37 °C for 30 min (rat brain) or for 10 min (guinea pig brain). The centrifugation step was repeated and the final pellets were resuspended in 5 volumes of 50 mM Tris-HCI buffer (pH 7.4) containing 0.32 M sucrose to give a protein concentration of 4 - 6 mg/ml. Protein concentration was determined by the method of Bradford using bovine serum albumin as standard.
(§3) Binding experiments were performed in 50 mM Tris-HCI buffer (pH 7.4) in a final volume of 1 ml containing 0.3 - 0.5 mg protein and different concentrations of the compounds. […] Guinea pig brain membranes were incubated with [^3H]U69,593 (30 min, 30 °C). Non-specific binding was determined in the presence of 10 µM unlabeled naloxone. […] Inhibition constant (Ki) values were calculated from competition binding curves using GraphPad Prism (San Diego, CA, USA) program. The values are expressed as the mean ± S.E.M of 2-4 independent experiments, each performed in duplicate.
(§4) The morphinan-6-one compounds of the present invention were evaluated in in vitro receptor binding assays for their interaction abilities with µ, δ and k opioid receptors. […] The affinities of the compounds at k opioid receptors were determined by displacement of [^3H]U69,593 using guinea pig brain membranes.

[3] = system: extracellular ACh concentration in the nucleus accumbens; settings: for 0AUC120 min (% increase x min) Mean ± SEM: 0 to 120 min; for Increase in ACh release (Peak increase as % of basal output): nucleus accumbens
C57BL/6N female mice [4] = test: Object recognition task; settings: for object recognition (memory): normal mice; for effect on scopolamine-induced impairment of object recognition: scopolamine-pretreated mice
δ opioid receptors = biological target: T4, δ opioid receptors (Rattus norvegicus, UniProt P33533); test: Opioid receptor binding assay, [3H][Ile5,6]deltorphin II, rat brain membranes; design: species or system Sprague-Dawley rat
T4 construct: Membrane fractions were prepared from Sprague-Dawley rat or guinea pig brains; from tissue; host or cells: Sprague-Dawley rat brain (without cerebella) membranes
Description: as §2, §3, §4

C57BL/6N female mice [5] = test: Open field (locomotor activity); type: in vivo; settings: for general locomotion in the open field (move distance, move time): 10 min
Text: Each mouse was used only once. […] . […] Thereafter it was replaced by the obturator.
The open field consisted of a transparent plastic box with white floor (41 x 41 x 41 cm) equipped with an automated activity monitoring system (True Scan, Coulbourn Instruments, Allentown, Pennsylvania, USA). The illumination at floor level was 150 lux. Mice were individually placed into the centre of the open field and their behaviours were tracked with the activity monitoring system. The time of locomotor activity, the overall distance travelled by the mice and the fraction of locomotor activity in the center area (center distance and center time) were monitored for 10 min. The arena was thoroughly cleaned with wet paper towels and dried at the end of each test.
Statistical analysis: All data from behavioural studies are shown as mean ± SEM. Statistical analysis was performed using the analysis of variance (ANOVA), followed by post hoc multiple comparisons Tukey-Kramer test, except comparison of alternation rates with the theoretical value of chance (defined as 50%) which was evaluated by Wilcoxon signed rank test. All statistical analyses were carried out by using the Graphpad Prism Program, version 4.0, Graphpad software, Inc.

[6] = biological target: σ receptors labelled by [^3H]DTG (σ1 + σ2); test: Sigma receptor binding assay, [3H]DTG; settings: read-out: IC50 ± SEM [^3H]DTG (σ1 + σ2); guinea pig brain membranes; compounds 1-5 tested up to 10 µM
Description: as §1

T4 sequence (P33533 whole entry): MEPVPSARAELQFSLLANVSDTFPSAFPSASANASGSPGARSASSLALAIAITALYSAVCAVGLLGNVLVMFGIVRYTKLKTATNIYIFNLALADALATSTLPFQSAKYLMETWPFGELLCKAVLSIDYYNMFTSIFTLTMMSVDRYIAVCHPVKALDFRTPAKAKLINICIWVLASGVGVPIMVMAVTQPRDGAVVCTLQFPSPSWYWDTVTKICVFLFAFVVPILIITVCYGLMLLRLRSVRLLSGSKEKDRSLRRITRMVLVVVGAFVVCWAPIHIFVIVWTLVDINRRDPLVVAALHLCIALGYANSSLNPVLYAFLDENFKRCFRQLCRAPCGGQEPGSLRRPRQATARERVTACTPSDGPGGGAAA
T3 sequence (P41144 whole entry): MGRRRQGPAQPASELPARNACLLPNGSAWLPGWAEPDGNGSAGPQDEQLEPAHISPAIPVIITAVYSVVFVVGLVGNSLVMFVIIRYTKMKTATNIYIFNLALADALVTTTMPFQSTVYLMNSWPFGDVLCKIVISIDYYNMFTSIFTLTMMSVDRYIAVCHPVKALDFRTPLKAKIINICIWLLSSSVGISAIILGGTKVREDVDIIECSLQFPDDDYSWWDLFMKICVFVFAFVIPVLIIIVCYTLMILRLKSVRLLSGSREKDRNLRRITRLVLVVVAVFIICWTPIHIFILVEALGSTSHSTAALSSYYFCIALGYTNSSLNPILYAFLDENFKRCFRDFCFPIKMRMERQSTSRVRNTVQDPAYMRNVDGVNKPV
T1 sequence (O42275 24-633): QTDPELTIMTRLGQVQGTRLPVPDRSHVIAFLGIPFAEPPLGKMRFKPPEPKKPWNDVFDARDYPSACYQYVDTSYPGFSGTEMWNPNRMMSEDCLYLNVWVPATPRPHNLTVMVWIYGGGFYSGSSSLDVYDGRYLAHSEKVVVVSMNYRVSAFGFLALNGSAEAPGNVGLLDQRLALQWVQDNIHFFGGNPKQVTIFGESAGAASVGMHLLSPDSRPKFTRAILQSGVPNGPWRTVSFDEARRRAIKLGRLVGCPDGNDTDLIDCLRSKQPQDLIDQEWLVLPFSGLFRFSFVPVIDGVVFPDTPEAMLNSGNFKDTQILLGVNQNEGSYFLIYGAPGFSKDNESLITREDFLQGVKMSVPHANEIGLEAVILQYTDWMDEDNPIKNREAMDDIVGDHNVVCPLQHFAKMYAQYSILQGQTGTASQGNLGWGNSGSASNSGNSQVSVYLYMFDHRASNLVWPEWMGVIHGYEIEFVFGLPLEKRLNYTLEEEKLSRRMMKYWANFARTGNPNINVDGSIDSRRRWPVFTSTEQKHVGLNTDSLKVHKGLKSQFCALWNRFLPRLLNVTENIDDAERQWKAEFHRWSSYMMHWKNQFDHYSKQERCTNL
T2 sequence (Q60492 whole entry): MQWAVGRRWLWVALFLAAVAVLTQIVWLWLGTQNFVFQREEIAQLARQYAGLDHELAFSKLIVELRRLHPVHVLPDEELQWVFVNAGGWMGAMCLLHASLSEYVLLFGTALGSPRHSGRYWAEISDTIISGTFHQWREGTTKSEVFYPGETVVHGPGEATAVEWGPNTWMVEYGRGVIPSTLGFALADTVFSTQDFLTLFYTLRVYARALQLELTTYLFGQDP

O=CN1CC[C@]23CC(=O)CC[C@H]2[C@H]1Cc1c(O)ccc(O)c13 [Compound 1, 1,4-dihydroxy-N-formylmorphinan-6-one]
IC50 [1]: 105 µM
IC50 [2]: > 10 µM
Ki (k opioid receptors): > 10 µM
binding to opioid receptor K (in words) (k opioid receptors): does not bind
Ki (k opioid receptors; read-out: Opioid binding affinities Ki κ receptor, [3H]U69,593, guinea pig brain membranes): > 10 µM
0AUC120 min (% increase x min) Mean ± SEM ([3]; Dose 0.5 µmol i.c.v.): 210 ± 31 % increase x min
Increase in ACh release (Peak increase as % of basal output) ([3]; Dose 0.5 µmol i.c.v.): 65 ± 16 %
0AUC120 min (% increase x min) Mean ± SEM ([3]; Dose 1 µmol i.c.v.): 1017 ± 214 % increase x min
Increase in ACh release (Peak increase as % of basal output) ([3]; Dose 1 µmol i.c.v.): 224 ± 39 %
AUC (area under the curve) of ACh (% of the basal value) ([3]; dose of 1 µmol i.c.v.): 1117±214%
level of ACh, peak value (% of the basal value) ([3]; dose of 1 µmol i.c.v.): 324±39%
dose dependence of the increase in extracellular brain ACh ([3]; i.c.v., across tested doses): dose-dependent increase
object recognition (memory) (C57BL/6N female mice [4]; 0.01 µmol i.c.v.): did not influence memory
object recognition (memory) (C57BL/6N female mice [4]; 0.1 µmol i.c.v.): significant impairment
effect on scopolamine-induced impairment of object recognition (C57BL/6N female mice [4]; 0.01 µmol i.c.v.): abolished the scopolamine-induced impairment of object recognition
Ki (δ opioid receptors): > 10 µM
binding to opioid receptor δ (in words) (δ opioid receptors): does not bind
Ki (δ opioid receptors; read-out: Opioid binding affinities Ki δ receptor, [3H][Ile5,6]deltorphin II, rat brain membranes): > 10 µM
relative center distance and move time (C57BL/6N female mice [5]; 0.01 µmol i.c.v.): had no effect
relative center distance and move time (C57BL/6N female mice [5]; 0.1 µmol i.c.v.): increased the relative center distance and move time significantly
general locomotion in the open field (move distance, move time) (C57BL/6N female mice [5]; 0.01 and 0.1 µmol i.c.v.): did not influence
IC50 [6]: > 10 µM

C=CCN1CC[C@]23CC(=O)CC[C@H]2[C@H]1Cc1cccc(OC)c13 [Compound 4, 4-methoxy-N-allylmorphinan-6-one]
IC50 [1]: 1 µM
IC50 [2]: > 0.01 µM
Ki (k opioid receptors): 0.0331 µM
effect on ACh in the superfusate (in words) ([3]; 0.25 µmol i.c.v., n=4, not shown): ineffective
effect on ACh in the superfusate (in words) ([3]; 0.5 µmol i.c.v.): short, delayed increase
toxicity at higher doses ([3]; 1 µmol and above, i.c.v., anaesthetized rats): could not be tested because of toxicity
0AUC120 min (% increase x min) Mean ± SEM ([3]; Dose 0.25 µmol i.c.v.): inactive
Increase in ACh release (Peak increase as % of basal output) ([3]; Dose 0.25 µmol i.c.v.): inactive
0AUC120 min (% increase x min) Mean ± SEM ([3]; Dose 0.5 µmol i.c.v.): 85 ± 26 % increase x min
Increase in ACh release (Peak increase as % of basal output) ([3]; Dose 0.5 µmol i.c.v.): 43 ± 19 %
object recognition (memory) (C57BL/6N female mice [4]; 0.05 µmol i.c.v.): small impairment of memory
effect on scopolamine-induced impairment of object recognition (C57BL/6N female mice [4]; 0.05 µmol i.c.v.): abolished the scopolamine-induced impairment of object recognition
Ki (δ opioid receptors): 0.316 µM
general locomotion in the open field (move distance, move time) (C57BL/6N female mice [5]; 0.1 µmol i.c.v.): did not influence
fraction of locomotor activity in the central zone (C57BL/6N female mice [5]; dose not given): did not influence
IC50 [6]: > 10 µM

Source: EP2340832A1, “Morphinan-6-one compounds for the treatment or prevention of neurodegenerative diseases” (Universität Innsbruck, priority 2009, dated 2011)
